“Also recorded” adds a separate entry of the source. Counter-ions that a name gives are not always drawn. Like-named read-outs stand apart in the source and are kept apart here.
Experiments:
[1] = wet granulation of the three drugs (Efavirenz, Tenofovir DF, Emtricitabine) together; US2007099902A1, EP1890681; cited from earlier work
[2] = Stability testing at 33 weeks of wet granulated Truvada and Atripla combination formulations, by HPLC; assay type: physicochemical
Method: Stability Testing at 33 Weeks
The stability of the Truvada and Atripla combination formulations after wet granulation was checked by HPLC after 33 weeks storage under 75% Relative Humidity (RH) and 40° C.
Two types of formulations were prepared for each combination, one containing the Tenofovir Disoproxil Fumarate and the other one containing the Tenofovir Disoproxil Hemifumarate co-crystal. In both combinations, water content of 30 and 40% was prepared.

[3] = HPLC assay for degradation products after wet granulation; assay type: physicochemical; settings: for Impurity peaks of Tenofovir disoproxil at 26.57 and 36.0 min (HPLC): wet granulation with Emtricitabine (Table 1)
Method: Analytical Methods: HPLC Assay for Degradation Product
Emtricitabine/Tenofovir disoproxil (Fumarate or Hemifumarate) granules are assayed by HPLC for Emtricitabine and Tenofovir disoproxil (Fumarate or Hemifumarate) using external references as described in US2007/0077295. The presence of degradation products are determined by area normalization. The identities of Emtricitabine and Tenofovir disoproxil (Fumarate or Hemifumarate) are confirmed by comparison of their retention times with those of the reference standards.
Approximately 6520 mg of Emtricitabine/Tenofovir disoproxil (Fumarate or Hemifumarate) granules was weighted into a 1 L volumetric flask. Added was 400 mL 25 mM phosphate buffer, pH 3 to the volumetric flask. Mixing was performed by stirring vigorously for about 75 minutes. 50:50 acetonitrile: methanol was added to the flask to approximately 2 cm below the 1 L mark. The solution was equilibrated to ambient temperature by mixing for 1 hour. The volume was diluted to 1 L with 50:50 acetonitrile: methanol and mixed well by stirring with a magnetic stirring bar. Using a 0.45 μm syringe filter with a syringe, approximately 10 mL for the next dilution was filtered. The first 2 mL of the filtrate was discarded. A class A pipette was used to transfer 5.0 mL of the filtrate into a 50 mL volumetric flask and dilute the to volume with sample solvent (40:30:30). […]
A composition comprising the ingredients and ratios as listed in table 1 are subjected to a standard wet granulation process with respectively 30% and 40% w/w water. The quality of the granulation was assessed visually. […]
A composition comprising the ingredients and ratios as listed in table 2 were subjected to a standard wet granulation process with respectively 30% and 40% w/w water. The quality of the granulation was assessed visually. […]
A composition comprising the ingredients and ratios as listed in Table 1 are subjected to a standard wet granulation process with respectively 30% and 40% w/w water. The quality of the granulation was assessed visually. […]

Degradation of Tenofovir disoproxil salt (HPLC chromatogram) [2] | Compound | Stability of Tenofovir DF [1] | Degradation of Tenofovir disoproxil salt (HPLC chromatogram) ([2]; Atripla sample prepared with 30% water, 33 weeks, 75% RH, 40° C.) | Degradation of Tenofovir disoproxil salt (HPLC chromatogram) ([2]; Atripla sample prepared with 40% water, 33 weeks, 75% RH, 40° C.) | Degradation of Tenofovir disoproxil salt (HPLC chromatogram) ([2]; Truvada sample prepared with 30% water, 33 weeks, 75% RH, 40° C.) | Degradation of Tenofovir disoproxil salt (HPLC chromatogram) ([2]; Truvada sample prepared with 40% water, 33 weeks, 75% RH, 40° C.) | Chemical stability during wet granulation (overall conclusion) ([3]; Truvada (table 1) and Atripla (table 2) formulations, 30% and 40% w/w water) | Impurity peaks of Tenofovir disoproxil at 26.57 and 36.0 min (HPLC) ([3]; 30% w/w high pure water) | Impurity peaks of Tenofovir disoproxil at 26.57 and 36.0 min (HPLC) ([3]; 40% w/w high pure water)
to a large extent | CC(C)OC(=O)OCOP(=O)(CO[C@H](C)Cn1cnc2c(N)ncnc21)OCOC(=O)OC(C)C [Tenofovir disoproxil fumarate] | degraded rapidly; also recorded: unstable |  |  |  |  |  |  | 
 | Tenofovir disoproxil hemifumarate |  | no degradation | less degradation | small degradation | small degradation | stable | not observed | not observed
